Reference: patent publication US7935815B2, “Imidazoyl pyridine compounds and salts thereof” (Eisai R&D Management Co., Ltd., priority 2007, dated 2011)

Test system: Aβ42 production
Assay: Quantification of Aβ peptide in culture of neurons from rat fetus brain (Aβ ELISA)
Format: cell-based
Conditions: Rattus norvegicus, Neuron, 72 h, rat primary neuronal culture (embryonic day 18 Wistar rat cerebral cortex); cultured three days after addition of compound; Aβx-42 ELISA of the medium; read-out: Aβ42 production reducing effect IC50
Method in brief: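 Primary cortical neurons from E18 Wistar rat embryos were cultured 4 days on poly-lysine, then treated with compound in Neurobasal/B27 without 2-mercaptoethanol (final DMSO ≤1%) for 3 days. Conditioned medium was assayed undiluted by ELISA for Aβx-42, against DMSO-only controls.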

Which IC50 does the source give for `COc1cc(/C=C/c2nc3n(n2)CCC3c2ccccc2C(F)(F)F)ccc1-n1cnc(C)c1` (single isomer, unassigned; (-)) [Example 317, (−)-2-{(E)-2-[3-methoxy-4-(4-methyl-1H-imidazol-1-yl)phenyl]vinyl}-7-(2-trifluoromethylphenyl)-6,7-dihydro-5H-pyrrolo[1,2-b][1,2,4]triazole] here?
Its IC50 is 25 nM.

`COc1nc(/C=C/c2nc3n(n2)CCCC3c2ccccc2Br)ccc1-n1cnc(C)c1` (single isomer, unassigned; (-)) [Example 290, (−)-8-(2-bromophenyl)-2-{(E)-2-[6-methoxy-5-(4-methyl-1H-imidazol-1-yl)pyridin-2-yl]vinyl}-5,6,7,8-tetrahydro-[1,2,4]triazolo[1,5-a]pyridine] was tested. Which IC50 did it give?
Its IC50 is 16 nM.

`COc1cc(/C=C/c2nc3n(n2)CCC[C@@]3(C#N)c2cc(F)c(F)c(F)c2)cnc1-n1cnc(C)c1` (single isomer, unassigned) [Example 229, (−)-2-{(E)-2-[5-methoxy-6-(4-methyl-1H-imidazol-1-yl)pyridin-3-yl]vinyl}-8-(3,4,5-trifluorophenyl)-5,6,7,8-tetrahydro-[1,2,4]triazolo[1,5-a]pyridine-8-carbonitrile] was tested. Which IC50 did it give?
Its IC50 is 169 nM.

Which IC50 does the source give for `COc1nc(/C=C/c2nc3n(n2)CCC[C@H]3c2cc(F)c(F)c(F)c2)ccc1-n1cnc(C)c1` (single isomer, unassigned) [Example 169, (−)-2-{(E)-2-[6-methoxy-5-(4-methyl-1H-imidazol-1-yl)pyridin-2-yl]vinyl}-8-(3,4,5-trifluorophenyl)-5,6,7,8-tetrahydro-[1,2,4]triazolo[1,5-a]pyridine] here?
The IC50 was 22 nM.

For `COc1nc(/C=C/c2nc3n(n2)CCC[C@@H]3c2cc(F)c(F)cc2F)ccc1-n1cnc(C)c1` (single isomer, unassigned) [Example 179, (−)-8-(2,4,5-trifluorophenyl)-2-{(E)-2-[6-methoxy-5-(4-methyl-1H-imidazol-1-yl)pyridin-2-yl]vinyl}-5,6,7,8-tetrahydro[1,2,4]triazolo[1,5-a]pyridine], which IC50 is on record?
The IC50 was 22 nM.

With `COc1nc(/C=C/c2nc3n(n2)CCC[C@H]3c2ccc(F)cc2Cl)ccc1-n1cnc(C)c1` (single isomer, unassigned) [Example 187, (−)-8-(2-chloro-4-fluorophenyl)-2-{(E)-2-[6-methoxy-5-(4-methyl-1H-imidazol-1-yl)pyridin-2-yl]vinyl}-5,6,7,8-tetrahydro-[1,2,4]triazolo[1,5-a]pyridine] as the molecule, how does the IC50 read?
The IC50 was 38 nM.

How did the IC50 turn out when `COc1cc(/C=C(\F)c2nc3n(n2)CCC[C@]3(O)c2cc(F)c(F)c(F)c2)ccc1-n1cnc(C)c1` (single isomer, unassigned) [Example 94, (−)-2-{(Z)-1-fluoro-2-[3-methoxy-4-(4-methyl-1H-imidazol-1-yl)phenyl]vinyl}-8-(3,4,5-trifluorophenyl)-5,6,7,8-tetrahydro[1,2,4]triazolo[1,5-a]pyridin-8-ol] was run?
The IC50 was 52 nM.

For `COc1cc(/C=C/c2nc3n(n2)C[C@H](O)C[C@@H]3c2cc(F)c(F)c(F)c2)ccc1-n1cnc(C)c1` [Example 110, (6R,8R)-2-{(E)-2-[3-methoxy-4-(4-methyl-1H-imidazol-1-yl)phenyl]vinyl}-8-(3,4,5-trifluorophenyl)-5,6,7,8-tetrahydro-[1,2,4]triazolo[1,5-a]pyridin-6-ol], which IC50 is on record?
Its IC50 is 33 nM.

With `COc1cc(/C=C/c2nc3n(n2)CCC3c2ccccc2)ccc1-n1cnc(C)c1` (single isomer, unassigned) [Example 141, (−)-2-{(E)-2-[3-methoxy-4-(4-methyl-1H-imidazol-1-yl)phenyl]vinyl}-7-phenyl-6,7-dihydro-5H-pyrrolo[1,2-b][1,2,4]triazole] as the molecule, how does the IC50 read?
The IC50 was 36 nM.

For `COc1nc(/C=C/c2nc3n(n2)CCC3c2ccccc2C(F)(F)F)ccc1-n1cnc(C)c1` (stereo not shown) [Example 390, 2-{(E)-2-[6-methoxy-5-(4-methyl-1H-imidazol-1-yl)pyridin-2-yl]vinyl}-7-(2-trifluoromethylphenyl)-6,7-dihydro-5H-pyrrolo[1,2-b][1,2,4]triazole], which IC50 is on record?
Its IC50 is 26 nM.

For `COc1nc(/C=C/c2nc3n(n2)CCCC3c2ccc(F)c(F)c2)ccc1-n1cnc(C)c1` (single isomer, unassigned) [Example 171, (−)-8-(3,4-difluorophenyl)-2-{(E)-2-[6-methoxy-5-(4-methyl-1H-imidazol-1-yl)pyridin-2-yl]vinyl}-5,6,7,8-tetrahydro-[1,2,4]triazolo[1,5-a]pyridine], which IC50 is on record?
Its IC50 is 17 nM.

How did the IC50 turn out when `COc1cc(/C=C/c2nc3n(n2)CC[C@H](O)[C@H]3c2cc(F)c(F)c(F)c2)ccc1-n1cnc(C)c1` [Example 103, (7S,8S)-2-{(E)-2-[3-methoxy-4-(4-methyl-1H-imidazol-1-yl)phenyl]vinyl}-8-(3,4,5-trifluorophenyl)-5,6,7,8-tetrahydro-[1,2,4]triazolo[1,5-a]pyridin-7-ol] was run?
The IC50 was 32 nM.

For `COc1nc(/C=C/c2nc3n(n2)CCOC3c2ccc(Cl)cc2)ccc1-n1cnc(C)c1` (single isomer, unassigned) [Example 262, (−)-8-(4-chlorophenyl)-2-{(E)-2-[6-methoxy-5-(4-methyl-1H-imidazol-1-yl)pyridin-2-yl]vinyl}-5,6-dihydro-8H-[1,2,4]triazolo[5,1-c][1,4]oxazine], which IC50 is on record?
The IC50 was 74 nM.

How did the IC50 turn out when `COc1cc(/C=C/c2nc3n(n2)CCCC3c2ccccc2C(F)(F)F)ccc1-n1cnc(C)c1` (single isomer, unassigned; (-)) [Example 311, (−)-2-{(E)-2-[3-methoxy-4-(4-methyl-1H-imidazol-1-yl)phenyl]vinyl}-8-(2-trifluoromethylphenyl)-5,6,7,8-tetrahydro-[1,2,4]triazolo[1,5-a]pyridine] was run?
Its IC50 is 11 nM.

How did the IC50 turn out when `COc1nc(/C=C/c2nc3n(n2)CCCN3c2ccc(Cl)cc2)ccc1-n1cnc(C)c1` [Example 232, 4-(4-chlorophenyl)-2-{(E)-2-[6-methoxy-5-(4-methyl-1H-imidazol-1-yl)pyridin-2-yl]vinyl}-4,5,6,7-tetrahydro-[1,2,4]triazolo[1,5-a]pyrimidine] was run?
Its IC50 is 33 nM.

`COc1cc(/C=C/c2nc3n(n2)CCCC3c2ccc(Br)cc2)ccc1-n1cnc(C)c1` (single isomer, unassigned; (-)) [Example 20, (−)-8-(4-bromophenyl)-2-{(E)-2-[3-methoxy-4-(4-methyl-1H-imidazol-1-yl)phenyl]vinyl}-5,6,7,8-tetrahydro-[1,2,4]triazolo[1,5-a]pyridine] was tested. Which IC50 did it give?
Its IC50 is 30 nM.

With `COc1nc(/C=C/c2nc3n(n2)CCCC3c2cc(F)ccc2C(F)(F)F)ccc1-n1cnc(C)c1` (single isomer, unassigned; (-)) [Example 329, (−)-8-(5-fluoro-2-trifluoromethylphenyl)-2-{(E)-2-[6-methoxy-5-(4-methyl-1H-imidazol-1-yl)pyridin-2-yl]vinyl}-5,6,7,8-tetrahydro-[1,2,4]triazolo[1,5-a]pyridine] as the molecule, how does the IC50 read?
The IC50 was 17 nM.

For `COc1nc(/C=C/c2nc3n(n2)CCC3c2cc(F)ccc2C(F)(F)F)ccc1-n1cnc(C)c1` (stereo not shown) [Example 392, 7-(5-fluoro-2-trifluoromethylphenyl)-2-{(E)-2-[6-methoxy-5-(4-methyl-1H-imidazol-1-yl)pyridin-2-yl]vinyl}-6,7-dihydro-5H-pyrrolo[1,2-b][1,2,4]triazole], which IC50 is on record?
The IC50 was 22 nM.

Same assay, conditions: rat primary neuronal culture (embryonic day 18 Wistar rat cerebral cortex); cultured three days after addition of compound; Aβx-42 ELISA of the medium; read-out: Aβ42 production reducing effect IC50

With `COc1nc(/C=C/c2nc3n(n2)CCCC3c2cc(F)cc(F)c2)ccc1-n1cnc(C)c1` (stereo not shown) [Example 365, 8-(3,5-difluorophenyl)-2-{(E)-2-[6-methoxy-5-(4-methyl-1H-imidazol-1-yl)pyridin-2-yl]vinyl}-5,6,7,8-tetrahydro-[1,2,4]triazolo[1,5-a]pyridine] as the molecule, how does the IC50 read?
The IC50 was 21 nM.
